Test results as given in article PMC9221290, “Alkaloids of Dicranostigma franchetianum (Papaveraceae) and Berberine Derivatives as a New Class of Antimycobacterial Agents” (Biomolecules, 2022).
Converted amounts (≈) assume the structure as drawn. Where two headings read alike, the source gives them in different places.

How the values were obtained:
[1] = test system: Mycobacterium avium DSM 44156 (ATCC 25291); assay: Antimycobacterial microdilution broth assay (resazurin), M. avium; assay type: cell-based; conditions: Mycobacterium avium, 96 h, read-out: MIC M. avium, microdilution broth, resazurin, 96 h
[2] = test system: Mtb H37Ra ITM-M006710 (ATCC 9431); assay: Antimycobacterial microdilution broth assay (resazurin), Mtb H37Ra; assay type: cell-based, Mycobacterium tuberculosis; conditions: Mycobacterium tuberculosis, read-out: MIC Mtb H37Ra
[3] = test system: Mycobacterium kansasii DSM 44162 (ATCC 12478); assay: Antimycobacterial microdilution broth assay (resazurin), M. kansasii; assay type: cell-based; conditions: Mycobacterium kansasii, 96 h
in vitro = conditions: human, % of cell viability compared to control; for viability at 0.1 µM: HepG2, 0.1 µM; for viability at 1 µM: HepG2, 1 µM; for viability at 5 µM: HepG2, 5 µM; for viability at 10 µM: HepG2, 10 µM; for viability at 20 µM: HepG2, 20 µM; for viability at 30 µM: HepG2, 30 µM; for viability at 40 µM: HepG2, 40 µM; for viability at 50 µM: HepG2, 50 µM; for viability at 25 µM: HepG2, 25 µM; for viability at 75 µM: HepG2, 75 µM; for viability at 100 µM: HepG2, 100 µM
[4] = test system: Mycolicibacterium smegmatis DSM 43465 (ATCC 607); assay: Antimycobacterial microdilution broth assay (resazurin), M. smegmatis; assay type: cell-based; conditions: Mycolicibacterium smegmatis, 48 h
[5] = test system: five Mycobacterium or Mycolicibacterium strains; assay: organism not typed; assay type: cell-based; conditions: read-out: MICs against all tested mycobacterial strains
HepG2 cells [6] = assay: cells; conditions: Homo sapiens, HepG2, 24 h
[7] = test system: Mycolicibacterium aurum DSM 43999 (ATCC 23366); assay: Antimycobacterial microdilution broth assay (resazurin), M. aurum; assay type: cell-based; conditions: Mycolicibacterium aurum, 72 h
HepG2 cells [8] = test system: HepG2 cells
[9] = test system: methicillin-resistant Staphylococcus aureus; set-up: method as in PMID 21341176; conditions: read-out: IC50 against methicillin-resistant Staphylococcus aureus; cited from earlier work
Aspergillus fumigatus = test system: Aspergillus fumigatus; set-up: method as in PMID 21341176; conditions: read-out: IC50 against Aspergillus fumigatus; cited from earlier work
[10] = test system: Mycolicibacterium smegmatis; set-up: method as in PMID 9784149; conditions: cited from earlier work
M. intracellulare = conditions: cited from earlier work
pulmonary tuberculosis = test system: pulmonary tuberculosis; set-up: method as in PMID 34745081; conditions: mice with pulmonary tuberculosis; cited from earlier work
[11] = 120 h, microdilution broth, resazurin, 120 h
[12] = calculated from MIC (µg/mL) and MW
[13] = read-out: MIC M. kansasii, microdilution broth, resazurin, 96 h
[14] = read-out: MIC M. smegmatis, microdilution broth, resazurin, 48 h
[15] = read-out: HepG2 IC50, 1. measurement, MTT, 24 h, single measurement 1
[16] = read-out: HepG2 IC50, 2. measurement, MTT, 24 h, single measurement 2
[17] = read-out: HepG2 IC50, 3. measurement, MTT, 24 h, single measurement 3
[18] = read-out: HepG2 IC50, MTT, 24 h incubation
[19] = read-out: MIC M. aurum, microdilution broth, resazurin, 72 h

Row | SMILES | MIC [1] [µg/mL] | MIC [2, 11] [µg/mL] | MIC [2, 12] [µM] | MIC [3, 13] [µg/mL] | viability at 1 µM (in vitro; 1. measurement) [%] | viability at 5 µM (in vitro; 1. measurement) [%] | viability at 10 µM (in vitro; 1. measurement) [%] | viability at 50 µM (in vitro; 1. measurement) [%] | viability at 1 µM (in vitro; 2. measurement) [%] | viability at 5 µM (in vitro; 2. measurement) [%] | viability at 10 µM (in vitro; 2. measurement) [%] | viability at 50 µM (in vitro; 2. measurement) [%] | viability at 1 µM (in vitro; 3. measurement) [%] | viability at 5 µM (in vitro; 3. measurement) [%] | viability at 10 µM (in vitro; 3. measurement) [%] | viability at 50 µM (in vitro; 3. measurement) [%] | MIC [4, 14] [µg/mL] | MIC [5] [µg/mL] | IC50 (HepG2 cells [6]; [15]) [µM] | MIC [7, 19] [µg/mL] | also measured
1 | COc1ccc2cc3[n+](cc2c1OCc1ccccc1Br)CCc1cc2c(cc1-3)OCO2 [16e, 9-O-(2-brombenzyl)berberine chloride] | 1.56 | 1.56 | 2.96 | 3.12 | 96.3 | 66.9 | 48.6 | 10.5 | 93.8 | 66.2 | 53.6 | 2.08 | 98.5 | 68 | 53.7 | 2.75 | 0.39 | 0.39 to 3.12 | 11.5 | 0.78 | viability at 0.1 µM (in vitro; 1. measurement): 102%; viability at 20 µM (in vitro; 1. measurement): 40.7%; viability at 30 µM (in vitro; 1. measurement): 34.3%; viability at 40 µM (in vitro; 1. measurement): 24.6%; viability at 0.1 µM (in vitro; 2. measurement): 95.5%; viability at 20 µM (in vitro; 2. measurement): 46.1%; viability at 30 µM (in vitro; 2. measurement): 36.5%; viability at 40 µM (in vitro; 2. measurement): 16.2%; viability at 0.1 µM (in vitro; 3. measurement): 92%; viability at 20 µM (in vitro; 3. measurement): 45.1%; viability at 30 µM (in vitro; 3. measurement): 34.5%; viability at 40 µM (in vitro; 3. measurement): 14.8%; IC50 (HepG2 cells [6]; [16]): 11.8 µM; IC50 (HepG2 cells [6]; [17]): 12 µM; IC50 (HepG2 cells [6]; [18]): 11.6 ± 0.29 µM; SI (selectivity index) (HepG2 cells [8]): 3.92; IC50 (HepG2 cells [8]; [18]): 11.8 ± 0.29 µM
2 | COc1ccc2cc3[n+](cc2c1OCc1ccc(Cl)c(Cl)c1)CCc1cc2c(cc1-3)OCO2 [16k, 9-O-(3,4-dichlorbenzyl)berberine chloride] | 1.56 | 1.56 | 2.78 | 6.25 | 97.6 | 66.5 | 50.4 | 35 | 97.8 | 79.2 | 46.7 | 35 | 85.7 | 67 | 46.9 | 11.7 | 1.56 | – | 13.3 | 1.56 | viability at 25 µM (in vitro; 1. measurement): 43.4%; viability at 75 µM (in vitro; 1. measurement): 13.2%; viability at 100 µM (in vitro; 1. measurement): 2.33%; viability at 25 µM (in vitro; 2. measurement): 35.5%; viability at 75 µM (in vitro; 2. measurement): 28.2%; viability at 100 µM (in vitro; 2. measurement): 4.02%; viability at 25 µM (in vitro; 3. measurement): 43.6%; viability at 75 µM (in vitro; 3. measurement): 0.77%; viability at 100 µM (in vitro; 3. measurement): 0.81%; IC50 (HepG2 cells [6]; [16]): 14.8 µM; IC50 (HepG2 cells [6]; [17]): 9.9 µM; IC50 (HepG2 cells [6]; [18]): 12.7 ± 2.51 µM; SI (selectivity index) (HepG2 cells [8]): 4.55
3 | CCOC1c2c(ccc(OC)c2OC)-c2ccc3cc4c(cc3c2N1C)OCO4 (stereo not drawn) [compound 3, 6-ethoxydihydrochelerythrine] | 31.2 (≈ 79.4 µM) | 31.2 | 79 | 31.2 (≈ 79.4 µM) | – | – | – | – | – | – | – | – | – | – | – | – | 31.2 (≈ 79.4 µM) | 15.6 to 31.2 (≈ 39.7 to 79.4 µM) | – | 15.6 (≈ 39.7 µM) | –
4 | COc1ccc2c(c1OC)C(OC1c3c(ccc(OC)c3OC)-c3ccc4cc5c(cc4c3N1C)OCO5)N(C)c1c-2ccc2cc3c(cc12)OCO3 (stereo not drawn) [compound 5, bis-[6-(5,6-dihydrochelerythrinyl)]ether] | 31.2 (≈ 43.8 µM) | 31.2 | 44 | 31.2 (≈ 43.8 µM) | – | – | – | – | – | – | – | – | – | – | – | – | 31.2 (≈ 43.8 µM) | 15.6 to 31.2 (≈ 21.9 to 43.8 µM) | – | 31.2 (≈ 43.8 µM) | IC50 [9]: 1000 nM; IC50 (Aspergillus fumigatus): 900 nM
5 | COc1ccc2cc3[n+](cc2c1OC)CCc1cc2c(cc1-3)OCO2 [compound 16, berberine] | 31.2 | 125 | 336 | – | – | – | – | – | – | – | – | – | – | – | – | – | – | – | – | – | MIC ([3]; read-out: MIC M. kansasii): 31.2 µg/mL; MIC ([4]; microdilution broth, resazurin, read-out: MIC M. smegmatis): 62.5 µg/mL; MIC against Mycolicibacterium smegmatis [10]: 25 µg/mL; MIC against M. intracellulare (M. intracellulare): 1.56 µg/mL; MIC against M. intracellulare (M. intracellulare; ref Gentry et al. 1998): 200 µg/mL; MIC ([7]; read-out: MIC M. aurum): 62.5 µg/mL; effects on bacterial burden (pulmonary tuberculosis): no additive or synergistic effects; lung pathology (pulmonary tuberculosis): decreased lung pathology
